From patent US11427552B2, “Heterocyclic compounds useful in the treatment of disease” (EPIGEN BIOSCIENCES, INC., priority 2013, dated 2022)

What follows are compounds tested against T1, LPA1R (Homo sapiens, UniProt Q92633) (assay: LPA1R Ca2+ flux functional assay (antagonist mode, FLIPR)). Details: inhibition of LPA-stimulated Ca2+ flux, LPA at EC80, LPA1R expressing cells (Millipore); read-out: LPA1 R Antagonist Activity.
T1 construct: host or cells: LPA1R expressing cells (Millipore, GPCR Profiler)
Type: cell-based
Protocol: Inhibition of LPA-stimulated Ca^2+ flux was used to assess compound potency using FLIPR technology in a 96 well plate format. The assay buffer used was a modified Hanks Balanced Salt Solution (HBSS) where HBSS was supplemented to contain 20 mM HEPES and 2.5 mM Probenecid at pH7.4 (Millipore, GPCR Profiler®). LPA1R expressing cells (Millipore) were plated and prepared 24 hours prior to assay of test articles. Ca^2+ ion flux was assessed from fluorescence of a Fluo-based No Wash Ca^2+ dye. Antagonist data are generated from plates with LPA concentrations sufficient to generate 80% efficacy [EC80]. Percentage inhibition was calculated from a reduction of efficacy according to concentration of compounds of Formula I-VI. For dose responses the inhibition data was used to calculate compound IC50. The agonist assay was conducted on a FLIPR^TETRA instrument where the test compound(s), vehicle controls, and reference agonist were added to the assay plate after a fluorescence baseline was established. The agonist assay was a total of 180 seconds and was used to assess each compound's ability to activate each GPCR assayed. Upon completion of the agonist assay, the assay plate was removed from the FLIPR^TETRA and incubated at 25° C. for seven (7) minutes. After the incubation period, the assay plate was placed back in the FLIPR^TETRA and the antagonist assay was initiated. Using EC80 potency values determined during the agonist assay, all pre-incubated sample compound wells were challenged with EC80 concentration of reference agonist after establishment of a fluorescence baseline. The antagonist assay was conducted using the same assay plate that was used for the agonist assay. The antagonist assay was conducted on a FLIPR^TETRA instrument where 9 vehicle controls and EC80 concentration of reference agonist were added to appropriate wells. The antagonist assay was a total of 180 seconds and was used to assess each compound's ability to inhibit each GPCR assayed. All assay plate data were subjected to appropriate baseline corrections. After baseline corrections were applied, maximum fluorescence values were exported and data processed to calculate percentage activation (relative to Emax reference agonist and vehicle control values), percentage inhibition (relative to EC80 and vehicle control values), and additional statistical values (i.e. Z′, percentage variation between replicate data values) to assess the quality of each plate. Where assay plate data were rejected, additional experiments were conducted. All dose response curves were generated using GraphPad Prism. The curves were fit by utilizing “Sigmoidal Dose Response (Variable Slope)” equation where the bottom parameter was fixed to “0.” Where appropriate, the top parameter was fixed to “100” to better predict potency values when a full curve was not generated by the concentrations assayed.

T1 sequence (Q92633 whole entry): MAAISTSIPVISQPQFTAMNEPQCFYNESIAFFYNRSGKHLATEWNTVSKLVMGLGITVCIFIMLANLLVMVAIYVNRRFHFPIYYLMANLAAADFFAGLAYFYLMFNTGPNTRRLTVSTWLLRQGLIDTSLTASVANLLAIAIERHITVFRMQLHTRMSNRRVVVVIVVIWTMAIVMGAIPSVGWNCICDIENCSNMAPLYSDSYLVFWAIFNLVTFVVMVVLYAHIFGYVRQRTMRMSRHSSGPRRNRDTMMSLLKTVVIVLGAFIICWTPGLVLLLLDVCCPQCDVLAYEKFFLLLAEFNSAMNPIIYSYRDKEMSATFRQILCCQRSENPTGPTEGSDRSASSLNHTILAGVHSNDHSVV

Row | SMILES | IC50
1 | Cc1noc(-c2ccc(C(=O)N[C@H](C(=O)O)c3ccccc3)cc2)c1NC(=O)OC(C)c1ccccc1Cl (mixture of isomers) [Example 3, 2-(S)-(4-{4-[(R,S)-1-(2-Chloro-phenyl)-ethoxycarbonylamino]-3-methyl-isoxazol-5-yl}-benzoylamino) Phenyl Acetic Acid] | > 50 µM
2 | Cc1noc(-c2ccc(C(=O)NC3(C(=O)O)CC3)cc2)c1NC(=O)OC(C)c1ccccc1Cl (stereo not shown) [Example 1, 1-(4-{4-[1-(2-Chloro-phenyl)-ethoxycarbonylamino]-3-methyl-isoxazol-5-yl}-benzoylamino)-cyclopropanecarboxylic Acid] | 1 to 50 µM
3 | Cc1noc(-c2ccc(C(=O)NC3(C(=O)O)Cc4ccccc4C3)cc2)c1NC(=O)OC(C)c1ccccc1Cl (stereo not shown) [Example 2, 2-(4-{4-[1-(2-Chloro-phenyl)-ethoxycarbonylamino]-3-methyl-isoxazol-5-yl}-benzoylamino)-indan-2-carboxylic Acid] | 1 to 50 µM
4 | Cc1noc(-c2ccc(C(=O)N[C@@H](Cc3ccccc3)C(=O)O)cc2)c1NC(=O)O[C@H](C)c1ccccc1 [Example 6, 2(S)-[[4-[3-methyl-4-((R)-1-phenylethoxycarbonylamino)isoxazol-5-yl]benzoyl]amino]-3-phenyl-propanoic Acid] | > 50 µM
5 | Cc1nn(C)c(-c2ccc(C(=O)N[C@H](Cc3ccccc3)C(=O)O)cc2)c1NC(=O)O[C@H](C)c1ccccc1 [Example 7, (R)-2-[[4-[2,5-dimethyl-4-((R)-1-phenylethoxycarbonylamino)pyrazol-3-yl]benzoyl]amino]-3-phenyl-propanoic Acid] | > 50 µM
6 | Cc1c(NC(=O)O[C@H](C)c2ccccc2)c(-c2ccc(C(=O)N[C@H](Cc3ccccc3)C(=O)O)cc2)nn1C [Example 8, (R)-2-[[4-[1,5-dimethyl-4-((R)-1-phenylethoxycarbonylamino)pyrazol-3-yl]benzoyl]amino]-3-phenyl-propanoic Acid] | > 50 µM
7 | Cc1nn(C)c(-c2ccc(C(=O)N[C@H](Cc3ccc(F)cc3)C(=O)O)cc2)c1NC(=O)O[C@H](C)c1ccccc1 [Example 9, (R)-2-[[4-[2,5-dimethyl-4-((R)-1-phenylethoxycarbonylamino)pyrazol-3-yl]benzoyl]amino]-3-(4-fluorophenyl)propanoic Acid] | > 50 µM
8 | Cc1c(NC(=O)O[C@H](C)c2ccccc2)c(-c2ccc(C(=O)N[C@H](Cc3ccc(F)cc3)C(=O)O)cc2)nn1C [Example 10, (R)-2-[[4-[1,5-dimethyl-4-((R)-1-phenylethoxycarbonylamino)pyrazol-3-yl]benzoyl]amino]-3-(4-fluorophenyl)propanoic acid] | > 50 µM
9 | Cc1nn(C)c(-c2ccc(C(=O)N[C@H](Cc3ccc(Br)cc3)C(=O)O)cc2)c1NC(=O)O[C@H](C)c1ccccc1 [Example 11, (R)-3-(4-bromophenyl)-2-[[4-[2,5-dimethyl-4-((R)-1-phenylethoxycarbonyl-amino)pyrazol-3-yl]benzoyl]amino]propanoic Acid] | > 50 µM
10 | Cc1nn(C)c(-c2ccc(C(=O)N[C@H](Cc3ccc(Cl)cc3)C(=O)O)cc2)c1NC(=O)O[C@H](C)c1ccccc1 [Example 13, (R)-3-(4-chlorophenyl)-2-[[4-[2,5-dimethyl-4-((R)-1-phenylethoxycarbonyl-amino)pyrazol-3-yl]benzoyl]amino]propanoic Acid] | > 50 µM
11 | Cc1c(NC(=O)O[C@H](C)c2ccccc2)c(-c2ccc(C(=O)N[C@H](Cc3ccc(Cl)cc3)C(=O)O)cc2)nn1C [Example 14, (R)-3-(4-chlorophenyl)-2-[[4-[1,5-dimethyl-4-((R)-1-phenylethoxycarbonyl-amino)pyrazol-3-yl]benzoyl]amino]propanoic Acid] | > 50 µM
12 | Cc1nn(C)c(-c2ccc(C(=O)N[C@H](Cc3ccc(F)c(F)c3)C(=O)O)cc2)c1NC(=O)O[C@H](C)c1ccccc1 [Example 15, (R)-3-(3,4-difluorophenyl)-2-[[4-[2,5-dimethyl-4-((R)-1-phenylethoxycarbonyl-amino)pyrazol-3-yl]benzoyl]amino]propanoic Acid] | > 50 µM
13 | Cc1c(NC(=O)O[C@H](C)c2ccccc2)c(-c2ccc(C(=O)N[C@H](Cc3ccc(F)c(F)c3)C(=O)O)cc2)nn1C [Example 16, (R)-3-(3,4-difluorophenyl)-2-[[4-[1,5-dimethyl-4-((R)-1-phenylethoxycarbonyl-amino)pyrazol-3-yl]benzoyl]amino]propanoic Acid] | > 50 µM
14 | Cc1noc(-c2ccc(C(=O)N[C@H](Cc3ccccc3)C(=O)O)cc2)c1NC(=O)O[C@@H](C)c1ccccc1 [Example 18, (R)-2-{4-[3-Methyl-4-((S)-1-phenyl-ethoxycarbonylamino)-isoxazol-5-yl]-benzoylamino}-3-phenyl-propionic Acid] | > 50 µM
15 | Cc1noc(-c2ccc(C(=O)N[C@@H](Cc3ccccc3)C(=O)O)cc2)c1NC(=O)O[C@@H](C)c1ccccc1 [Example 19, (S)-2-{4-[3-Methyl-4-((S)-1-phenyl-ethoxycarbonylamino)-isoxazol-5-yl]-benzoylamino}-3-phenyl-propionic Acid] | > 50 µM

The next lines start with the values.

Row | IC50 | SMILES
16 | < 0.3 µM | Cc1noc(-c2ccc(COC(CC3CC3)C(=O)O)cc2)c1NC(=O)O[C@H](C)c1ccccc1 (mixture of isomers) [Example 44, (RS)-3-Cyclopropyl-2-{4-[3-methyl-4-((R)-1-phenyl-ethoxycarbonylamino)-isoxazol-5-yl]-benzyloxy}-propionic Acid]
17 | < 0.3 µM | Cc1noc(-c2ccc(COC(Cc3ccc(Cl)cc3)C(=O)O)cc2)c1OC(=O)O[C@H](C)c1ccccc1 (mixture of isomers) [Example 45, (RS)-3-(4-Chloro-phenyl)-2-{4-[3-methyl-4-((R)-1-phenyl-ethoxycarbonyloxy)-isoxazol-5-yl]-benzyloxy}-propionic Acid]
18 | 0.3 to 1 µM | Cc1noc(-c2ccc(C(=O)NC(Cc3ccccc3)C(=O)O)cc2)c1NC(=O)OC(C)c1ccccc1Cl [Example 4, 2-(R)-(4-{4-[(R,S)-1-(2-Chloro-phenyl)-ethoxycarbonylamino]-3-methyl-isoxazol-5-yl}-benzoylamino) Phenyl Propanoic Acid]
19 | < 0.3 µM | Cc1noc(-c2ccc(C(=O)N[C@H](Cc3ccccc3)C(=O)O)cc2)c1NC(=O)O[C@H](C)c1ccccc1 [Example 5, 2(R)-[[4-[3-methyl-4-((R)-1-phenylethoxycarbonylamino)isoxazol-5-yl]benzoyl]amino]-3-phenyl-propanoic Acid]
20 | < 0.3 µM | Cc1noc(-c2ccc(C(=O)N[C@H](CC3CC3)C(=O)O)cc2)c1NC(=O)O[C@H](C)c1ccccc1Cl [Example 17, (R)-2-(4-{4-[(R)-1-(2-chloro-phenyl)-ethoxycarbonylamino]-3-methyl-isoxazol-5-yl}-benzoylamino)-3-cyclopropyl-propionic Acid]
21 | < 0.3 µM | Cc1noc(-c2ccc(C(=O)N[C@H](Cc3ccc(F)cc3)C(=O)O)cc2)c1NC(=O)O[C@H](C)c1ccccc1Cl [Example 21, (R)-2-(4-{4-[(R)-1-(2-Chloro-phenyl)-ethoxycarbonylamino]-3-methyl-isoxazol-5-yl}-benzoylamino)-3-(4-fluoro-phenyl)-propionic Acid]
22 | < 0.3 µM | Cc1noc(-c2ccc(C(=O)N[C@H](Cc3ccc(Cl)cc3)C(=O)O)cc2)c1NC(=O)O[C@H](C)c1ccccc1Cl [Example 22, (R)-3-(4-Chloro-phenyl)-2-(4-{4-[(R)-1-(2-chloro-phenyl)-ethoxycarbonylamino]-3-methyl-isoxazol-5-yl}-benzoylamino)-propionic Acid]
23 | < 0.3 µM | Cc1noc(-c2ccc(C(=O)N[C@H](Cc3ccc(F)c(F)c3)C(=O)O)cc2)c1NC(=O)O[C@H](C)c1ccccc1Cl [Example 23, (R)-2-(4-{4-[(R)-1-(2-Chloro-phenyl)-ethoxycarbonylamino]-3-methyl-isoxazol-5-yl}-benzoylamino)-3-(3,4-difluoro-phenyl)-propionic Acid]
24 | < 0.3 µM | Cc1noc(-c2ccc(C(=O)N[C@H](Cc3ccccc3Cl)C(=O)O)cc2)c1NC(=O)O[C@H](C)c1ccccc1Cl [Example 24, (R)-3-(2-Chloro-phenyl)-2-(4-{4-[(R)-1-(2-chloro-phenyl)-ethoxycarbonylamino]-3-methyl-isoxazol-5-yl}-benzoylamino)-propionic Acid]
25 | < 0.3 µM | Cc1noc(-c2ccc(C(=O)N[C@H](Cc3ccc(Br)cc3)C(=O)O)cc2)c1NC(=O)O[C@H](C)c1ccccc1Cl [Example 25, (R)-3-(4-Bromo-phenyl)-2-(4-{4-[(R)-1-(2-chloro-phenyl)-ethoxycarbonylamino]-3-methyl-isoxazol-5-yl}-benzoylamino)-propionic Acid]
